Reference: patent US8586527B2, “Cerivastatin to treat pulmonary disorders” (priority 2011, dated 2013)

Columns and labels:
[1] = tested on: pulmonary aterial hypertension; settings: injected intraperitoneally; cited from earlier work
DDAH1 = DDAH1 gene expression (real-time RT-PCR) in endothelial cells; assay type: cell-based; settings: human umbilical endothelial cells, 24 hours, FIG. 1A
Procedure: (§1) Human umbilical endothelial cells were seeded in 6-well plates (50,000 cells per well) and incubated with EGM (endothelial cell growth medium with bullet kit, Lonza) overnight. Then, triplicate wells were treated with indicated concentrations of cerivastatin in 2 ml of EGM. After 24 hours, total RNA was extracted using the RNeasy Kit (Qiagen, Valencia, Calif. After reverse transcription (RT) using the High Capacity cDNA Reverse Transcription Kit (Applied Biosystems, Foster City, Calif.), PCR was performed using an ABI Prism 7500 Sequence Detection System (Applied Biosystems, Foster City, Calif.) and QuantiTect SYBR Green PCR Master Mix (Qiagen, Valencia, Calif.). All reactions were carried out in triplicate, and each mRNA copy level was quantified using comparative CT method. Expression of actin was used as an endogenous control in all experiments and relative fold changes were calculated. All data were expressed as the means±standard deviation. The gene-specific forward and reverse primer sequences were • 5′-[…]-3′(SEQ ID NO: 2) and 5′-[…]-3′ (SEQ ID NO: 3) for actin; • 5′-[…]-3′ (SEQ ID NO: 4) and 5′-ggggtgttgaagcaat-3′ (SEQ ID NO: 5) for DDAH-1; • 5′-[…]-3′ (SEQ ID NO: 6) and 5′-[…]-3′ (SEQ ID NO: 7) for DDAH-2.

DDAH2 = DDAH2 gene expression (real-time RT-PCR) in endothelial cells; assay type: cell-based; settings: human umbilical endothelial cells, 24 hours, dose dependent, FIG. 1B
Procedure: as §1

CCR2 = CCR2 gene expression (real-time RT-PCR) in THP-1 cells; assay type: cell-based; settings: human THP-1 cells, TNF-α + 10 μM statin, FIG. 2B
Procedure: THP-1 cells were obtained from the American Tissue Type Culture Collection (ATCC). Cells were maintained in RPMI-1640 (Mediatech, Manassas, Va.) containing 10% fetal bovine serum (FBS; Sigma-Aldrich) and 1% penicillin/streptomycin (Sigma-Aldrich), and incubated in a humidified incubator containing 5% CO2/95% air at 37° C. In all experiments, cells were seeded at the concentration of 5×10^5 cells/mL in 12 well plates and then various statins were added to the medium. After 1 h, […] at a final concentration of 100 ng/ml or TNF-[…] at a final concentration of 10 ng/mL was added to the cultures. Cell pellets were collected for RNA and protein isolation.
Total RNA was extracted using the RNeasy Kit (Qiagen, Valencia, Calif.) according to the manufacturer's instructions. After reverse transcription (RT) using the High Capacity cDNA Reverse Transcription Kit (Applied Biosystems, Foster City, Calif.), PCR was performed using an ABI Prism 7500 Sequence Detection System (Applied Biosystems, Foster City, Calif.) and QuantiTect SYBR Green PCR Master Mix (Qiagen, Valencia, Calif.). All reactions were carried out in triplicate, and each mRNA copy level was quantified using comparative CT method. Expression of actin was used as an endogenous control in all experiments and relative fold changes were calculated. All data were expressed as the means±standard deviation. […]

rat model of PAH [2] = assay: PA pressure by right heart catheterization in MCT rat model of PAH; assay type: in vivo; settings: intratracheal, twice weekly, 2 mg/ml in PBS, day 42, relative to MCT injection PAH model
Procedure: (§2) PAH was induced in adult male Sprague-Dawley rats (˜375 to 425 g, n=12, Harlan Laboratories) by a single, subcutaneous injection of monocrotnil (MCT) (60 mg/kg; n=24). Schultze, A. E. and Roth, R. A. J. Toxicol. Environ. Health. B, Crit. Rev. 1(4): 271-346 (1998). The animals injected with MCT were randomly assigned to 2 groups that received intratracheal (I.T.) aerosol instillation (MicroSprayer® Aerosolizer Model IA-1B, PennCentury, Inc.) of PBS twice weekly (200 μl; n=6), and a second group received IT. aerosol instillation of Cerivastatin twice weekly (2 mg/ml in PBS; n=6 I.T. instillations of PBS and Cerivastatin were administered the day of MCT injection until the rats were euthanized on day 42.
Echocardiography was performed at day 14, 28, and 42. Right heart catheterization was performed on day 42 before being euthanized. Sedation was induced by placing the rat in an anesthesia induction chamber with gas flow at 1 l/min, and the isoflurane was delivered via vaporizer at 3-4%. After induction, the rat was intubated and remained anesthetized with inhalant isoflurane at 1% for echo and 2% for right heart catheterization.
A 1.4-F micromanometer-tipped Millar pressure catheter (Millar Instruments) was used to measure systolic (sPAP), mean (mPAP), and diastolic PA pressure (dPAP) in all rats. […]

rat model of PAH [3] = assay: Echocardiography in MCT rat model of PAH; assay type: in vivo; settings: intratracheal, twice weekly, 2 mg/ml in PBS
Procedure: PAH was induced in adult male Sprague-Dawley rats ( 375 to 425 g, n=12, Harlan Laboratories) by a single, subcutaneous injection of monocrotnil (MCT) (60 mg/kg; n=24). Schultze, A. E. and Roth, R. A. J. Toxicol. Environ. Health. B, Crit. Rev. 1(4): 271-346 (1998). The animals injected with MCT were randomly assigned to 2 groups that received intratracheal (I.T.) aerosol instillation (MicroSprayer® Aerosolizer Model IA-1B, PennCentury, Inc.) of PBS twice weekly (200 μl; n=6), and a second group received IT. aerosol instillation of Cerivastatin twice weekly (2 mg/ml in PBS; n=6 I.T. instillations of PBS and Cerivastatin were administered the day of MCT injection until the rats were euthanized on day 42. Echocardiography was performed at day 14, 28, and 42. Right heart catheterization was performed on day 42 before being euthanized. Sedation was induced by placing the rat in an anesthesia induction chamber with gas flow at 1 l/min, and the isoflurane was delivered via vaporizer at 3-4%. After induction, the rat was intubated and remained anesthetized with inhalant isoflurane at 1% for echo and 2% for right heart catheterization. After shaving the chest, 70% isopropyl alcohol was applied as the ultrasound transmission media and transthoracic echocardiography was performed (GE vivid i with […]-RS linear array transducer, 5.0-13.0 MHz). The 2-D modality was applied to measure PA diameter at the level of the pulmonary outflow tract from the parasternal short-axis view. PA acceleration time (PAAT) and PA flow velocity time integral (VTI) were measured using pulse-wave Doppler with the sample volume centrally positioned in the PA distal to the pulmonary valve. Angle correction was used to adjust the pulse-wave cursor such that it was positioned parallel to pulmonary artery flow. By combining PA VTI with the PA cross-sectional area, echocardiographically derived stroke volume was determined. M-mode was applied to measure right ventricular cavity thickness during end diastole using the parasternal long-axis view obtained from the right side of the rat.

rat model of PAH [4] = assay: RV hypertrophy (RV weight ratio) in MCT rat model of PAH; assay type: in vivo; settings: intratracheal, twice weekly, 2 mg/ml in PBS, day 42, relative to MCT injection PAH model, FIG. 6
Procedure: as §2, with “42. After recording hemodynamic measurements and collecting blood, the animals were euthanized under deep anesthesia (isoflurane 5%) and the lungs and heart were isolated. The RV free wall was dissected from the left ventricle and interventricular septum (IVS), and the wet weight of each was recorded. RV hypertrophy was obtained as a RV weight/(LV+IVS weights) ratio.” for “42.”

SMILES	improvement of pulmonary arterial hypertension [1]	effect on the expression of DDAH1 (relative mRNA level) (DDAH1)	effect on the expression of DDAH2 (relative mRNA level) (DDAH2)	CCR2 expression (CCR2)	systolic pulmonary artery pressure (sPAP) (rat model of PAH [2]; FIG. 3)	mean pulmonary artery pressure (mPAP) (rat model of PAH [2]; FIG. 4)	pulmonary artery acceleration time (PAAT) (rat model of PAH [3]; FIG. 7A (plotted in ms))	mean right ventricle thickening (RV cavity thickness) (rat model of PAH [3]; relative to MCT injection PAH model, FIGS. 5A and 5B)	PAAT as percent of the control (rat model of PAH [3]; MCT alone 40.5% of the control, FIG. 7B)	right ventricular (RV) weight ratio (RV/(LV+septum)) (rat model of PAH [4])
CC(C)c1c(C(=O)Nc2ccccc2)c(-c2ccccc2)c(-c2ccc(F)cc2)n1CC[C@@H](O)C[C@@H](O)CC(=O)O [atorvastatin]	not									
COCc1c(C(C)C)nc(C(C)C)c(/C=C/[C@@H](O)C[C@@H](O)CC(=O)O)c1-c1ccc(F)cc1 [cerivastatin, (3R,5S,6E)-7-[4-(4-fluorophenyl)-5-(methoxymethyl)-2,6-bis(propan-2-yl)pyridin-3-yl]-3,5-dihydroxyhept-6-enoic acid]		relatively small and non-concentration dependent effect	more than 600%	reduces CCR2	statistically significant decrease	statistically significant decrease	significantly increased	significantly reduced	60.7 % of the control	significantly reduced
